Reference: patent publication US11096934B2, “Compounds and methods useful for treating or preventing hematological cancers” (THE BROAD INSTITUTE, INC., priority 2015, dated 2021)
Each block holds one compound with its values, some of them ahead of it.

Experiments:
Lys-GFP-ER-HoxA9 cells [1] = experiment: Myeloid differentiation assay in Lys-GFP-ER-HoxA9 cells (GFP / CD11b flow cytometry); conditions: for myeloid differentiation: ER-HoxA9 cellular differentiation assay, in words; for effect of uridine supplementation of the media on differentiation: uridine rescue, also U937 and THP1
Procedure: (See Example 20 for assay details.) After four days of compound treatment, cells were assessed by high-throughput flow cytometry for viability based on forward and side-scatter properties, and for differentiation as determined by the endogenous expression of GFP and cell-surface expression of CD11b (APC fluorescence, FIG. 2C).
The cell line used was ERHoxA9 myeloblast cell line. […] Removal of beta-estradiol from the culture media inactivates ERHoxA9 and the cells are freed from the HoxA9-differentiation arrest and undergo normal myeloid differentiation.
Cells were cultured in RPMI (Cellgro) supplemented with 10% fetal bovine serum (Serum Source Int'l), penicillin/streptomycin, L-glutamine (Omega Scientific), 5% conditioned media containing stem cell factor (SCF), and 0.5 μM beta-estradiol (Sigma). On day 1, 25 μL of complete media supplemented with 0.04% Pluronic F-68 (GIBCO) was added to a sterile 384 well culture plate (Greiner) followed by the addition of 0.2 μL of test compound in DMSO (Sigma). Wells contained complete media supplemented with Pluronic F-68 and the 5 μM of the estrogen receptor antagonist fulvestrant that served as a positive control for differentiation. 25 μL of cells (1.2×10^5/ml) in complete media were added and the plates were incubated (37° C./5% CO2) for 4 days. Final concentrations of components were 3,000 cells/well, 4 μM test compound, and 0.4% DMSO.
On day 5, plates were harvested as follows: 5 μL of an antibody/bead solution consisting of a 1:100 dilution of APC-conjugated anti-mouse CD11b (eBioscience, cloneM1/70) and a 1/500 dilution of polystyrene beads (Spherotech) were added to wells and the plates were incubated for 20 min prior to sampling using the HyperCyt® high throughput flow cytometry platform.
Cells were cultured in RPMI (Cellgro) supplemented with 10% fetal bovine serum (Serum Source Int'l), penicillin/streptomycin, L-glutamine (Omega Scientific), 5% conditioned media containing stem cell factor (SCF), and 0.5 μM beta-estradiol (Sigma, E2758). On day 1, 25 μL of complete media supplemented with 0.04% Pluronic F-68 (GIBCO) was added to a sterile 384 well culture plate (Greiner) followed by the addition of 0.2 μL of compound dilution arrays in DMSO. Some wells contained complete media supplemented with Pluronic F-68 and 5 μM of the estrogen receptor antagonist fulvestrant that served as a positive control for differentiation. 25 μL of cells (1.2×10^5/ml) in complete media were added and the plates were incubated (37° C./5% CO2) for 4 days. Final concentrations of components were 3,000 cells/well and 0.4% DMSO.

[2] = target: recombinant human DHODH protein (Homo sapiens, UniProt Q02127); experiment: In vitro DHODH enzyme inhibition assay; type: biochemical; conditions: in words
Chain of recombinant human DHODH protein (Q02127 whole entry): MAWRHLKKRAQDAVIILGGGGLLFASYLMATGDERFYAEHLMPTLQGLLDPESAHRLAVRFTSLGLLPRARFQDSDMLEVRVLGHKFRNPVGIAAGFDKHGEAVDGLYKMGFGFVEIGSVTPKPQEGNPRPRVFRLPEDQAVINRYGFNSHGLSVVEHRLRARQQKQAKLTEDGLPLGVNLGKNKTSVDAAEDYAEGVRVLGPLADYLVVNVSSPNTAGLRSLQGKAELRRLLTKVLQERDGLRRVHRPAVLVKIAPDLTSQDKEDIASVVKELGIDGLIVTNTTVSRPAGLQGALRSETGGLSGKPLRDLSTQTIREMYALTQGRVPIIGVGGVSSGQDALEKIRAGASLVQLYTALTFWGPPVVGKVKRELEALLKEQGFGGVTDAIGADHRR

[3] = system: acute promyelocytic leukemia (APL); conditions: ATRA incorporated into treatment regimens; from 20%; cited from earlier work
U937 cells = experiment: Differentiation (CD11b upregulation) in U937 human leukemia cell line; type: cell-based
Procedure: (§1) The THP-1 and U937 human leukemic cell lines were used within the same procedure as in the primary assay, except using human leukemic cell lines. These are factor-independent cell lines and estrogen-independent cell lines, such that cells were grown simply in RPMI supplemented with 10% fetal bovine serum.

THP1 cells [4] = experiment: Differentiation (CD11b upregulation) in THP1 human leukemia cell line; type: cell-based
Procedure: as §1

Lys-GFP-ER-HoxA9 cells [5] = experiment: Cellular metabolite analysis after DHODH inhibition in vitro; type: cell-based, murine; conditions: 48 hours treatment
Text: DHODH catalyzes the conversion of dihydroorotate (DHO) to orotate in the endogenous synthesis of uridine monophosphate (UMP, FIG. 5A).

[6] = system: protein O-GlcNAc modification; experiment: Immunoblot of protein O-GlcNAc modification; type: cell-based
Text: FIG. 5E is an immunoblot.
DHODH and OMPD inhibitors lead to depletion of uridine and to myeloid differentiation in model systems. […] (See, Example 24.) Without intending to be bound by theory, part of the differentiation effect may be due to depletion of UDP-GlcNAc leading to decreased O-linked N-acetylglycosylation (GlcNAc) post-translational modification of proteins.

Bioavailability = conditions: in vivo
Solubility = type: physicochemical
Procedure: Solubility was determined in phosphate buffered saline (PBS) pH 7.4 with 1% DMSO. Each compound was prepared in duplicate at 100 μM in both 100% DMSO and PBS with 1% DMSO. Compounds were allowed to equilibrate at room temperature with a 250 rpm orbital shake for 24 hours. After equilibration, samples were analyzed by UPLC-MS (Waters, Milford, Mass.) with compounds detected by SIR detection on a single quadrupole mass spectrometer. The DMSO samples were used to create a two point calibration curve to which the response in PBS was fit.

THP1 cells [7] = experiment: THP-1 subcutaneous xenograft model of AML; type: in vivo, SCID mice
Text: THP1 cells were implanted subcutaneously into the flank of SCID mice, and allowed 10 days to engraft to tumor size of ˜40 mm^2.

DHODH activity = experiment: Plasma uridine and dihydroorotate (DHO) after brequinar dosing; type: in vivo, murine
Procedure: DHODH catalyzes the conversion of dihydroorotate (DHO) to orotate in the endogenous synthesis of uridine monophosphate. Inhibition of DHODH activity results in dihydroorotate accumulation and uridine depletion.
Plasma uridine levels were analyzed at various times thereafter (FIG. 8). […] Patient-specific dosing will be accomplished by adjusting the dose of DHODH inhibitor based on the patient's metabolism. This will involve adjusting the dosage based on the measurement of plasma DHO.

Plasma protein binding = type: in vitro ADME; conditions: consistent with published literature
Procedure: Plasma protein binding was determined by equilibrium dialysis using the Rapid Equilibrium Dialysis (RED) device (Pierce Biotechnology, Rockford, Ill.) for both human and mouse plasma. Each compound was prepared in duplicate at 5 μM in plasma (0.95% acetonitrile, 0.05% DMSO) and added to one side of the membrane (200 μl) with PBS pH 7.4 added to the other side (350 μl). Compounds were incubated at 37° C. for 5 hours with a 250 rpm orbital shake. After incubation, samples were analyzed by UPLC-MS (Waters, Milford, Mass.) with compounds detected by SIR detection on a single quadrupole mass spectrometer.

organ rejection = conditions: in vivo; cited from earlier work
[8] = system: HoxA9-Meis1 leukemia cells; experiment: Syngeneic HoxA9 and Meis1-driven model of AML
Text: To address the anti-leukemic and differentiation effect of DHODH inhibition in vivo, we chose a syngeneic retroviral transduction model of AML. In this model, bone marrow cells are transduced with MSCV-based retrovirus expressing both HoxA9 and Meis1 oncoproteins and introduced intravenously into recipient mice that have been pre-conditioned with a sub-lethal dose of radiation. Mice that developed acute myeloid leukemia were sacrificed and bone marrow cells were expanded in vitro in media supplemented with SCF and IL-3. To permit easy tracking in vivo, leukemic cells were transduced with lentivirus expressing the Venus fluorescent protein, and double-sorted by fluorescence activated cell sorting (FACS) to purity. These Venus-expressing cultured leukemic cells were re-transplanted into pre-conditioned secondary recipient mice, and these secondary recipients were used in all described experiments. […] Mice were treated at six dosages: (1) vehicle Q2D, (2) BRQ 5 mg/kg Q2D, (3) BRQ 10 mg/kg Q2D, (4) BRQ 25 mg/kg Q2D, (5) vehicle days 1+4 of a 7-day schedule or (6) BRQ 25 mg/kg days 1+4 of a 7-day schedule. Scheduled interim euthanasia and leukemia analyses were performed at two planned time points (FIG. 6A).

[9] = Brequinar plasma concentration after a single IP dose; conditions: mouse, FIG. 4E, read-out: half-life in vivo (converted)
wild-type C57B1/6 mice [10] = conditions: C57B1/6, mouse, in vivo, 6 days
[11] = target: panel of >400 known kinases; experiment: DiscoverX KinomeScan kinase panel; type: binding
[12] = system: leukemia initiating cells; experiment: Leukemia-initiating cell activity (transplant of FACS-purified leukemia cells into tertiary recipients); type: in vivo, mice
Text: Leukemic cells isolated from the BRQ-treated mice were more differentiated on the basis of their CD11b and Gr-1 cell-surface expression (FIGS. 6C, 6D). To assess their morphology as well as their functional potential as leukemia initiating cells, live Venus-positive leukemic cells were freshly isolated from vehicle or BRQ-treated mice by fluorescence-activated cell sorting (FACS).
FACS-purified leukemia cells from vehicle or BRQ-treated mice were re-introduced into sub-lethally irradiated tertiary recipient mice. The experiment was performed twice: from mice that received BRQ 25 mg/kg every other day for 4 doses (FIG. 7B, left panel), and from mice that received BRQ day 1+4 of a 7-day cycle for a total of 6 doses (FIG. 7B, right panel).

wild-type C57B1/6 mice [13] = experiment: Maximum tolerated dose (MTD) evaluation; conditions: doses higher than 15 mg/kg, after 6 days of daily dosing; reversible
[14] = 5 mg/kg or 10 mg/kg every other day
[15] = 25 mg/kg day 1+4 of a 7-day schedule
[16] = 25 mg/kg day 1+4 of a 7-day schedule, 6 doses

Structure (SMILES): O=C(CCNC(=O)c1ccc(Cl)cc1)N[C@@H]1CCCc2ccccc21 [(R)-C07]
myeloid differentiation (Lys-GFP-ER-HoxA9 cells [1]): triggered myeloid differentiation | effect of uridine supplementation of the media on differentiation (Lys-GFP-ER-HoxA9 cells [1]): abrogated the differentiation effect | DHODH enzyme inhibition [2]: inhibitors of DHODH

Structure (SMILES): CC1=C(/C=C/C(C)=C/C=C/C(C)=C/C(=O)O)C(C)(C)CCC1 [ATRA, all-trans retinoic acid]
overall survival of patients with APL [3]: 75%

DHODH enzyme inhibition [2]: inhibitors of DHODH
Structure (SMILES): O=C(O)c1cccnc1Nc1ccc(Cl)cc1 [Compound C03]
myeloid differentiation (Lys-GFP-ER-HoxA9 cells [1]): triggered myeloid differentiation | effect of uridine supplementation of the media on differentiation (Lys-GFP-ER-HoxA9 cells [1]): abrogated the differentiation effect | differentiation (upregulation of CD11b expression) (U937 cells): promoted differentiation | differentiation (upregulation of CD11b expression) (THP1 cells [4]): promoted differentiation

Structure (SMILES): O=C(CCNC(=O)c1ccc(OC(F)(F)F)cc1)N[C@@H]1CCCc2ccccc21 [ML390]
accumulation of dihydroorotate (Lys-GFP-ER-HoxA9 cells [5]): > 500 fold | uridine and downstream metabolites (Lys-GFP-ER-HoxA9 cells [5]): depletion of uridine and other downstream metabolites | effect of uridine supplementation of the media on differentiation (Lys-GFP-ER-HoxA9 cells [1]): abrogated the differentiation effect | protein O-GlcNAc modification [6]: global reduction of protein O-GlcNAc modification | bioavailability (Bioavailability): low | solubility (Solubility): low | DHODH enzyme inhibition [2]: DHODH was confirmed as the target

Structure (SMILES): Cc1c(-c2ccc(-c3ccccc3F)cc2)nc2ccc(F)cc2c1C(=O)O [brequinar sodium]
myeloid differentiation (Lys-GFP-ER-HoxA9 cells [1]): active | DHODH enzyme inhibition [2]: active

Structure (SMILES): Cc1c(-c2ccc(-c3ccccc3F)cc2)nc2ccc(F)cc2c1C(=O)O [brequinar, 6-fluoro-2-(2′-fluoro-[1,1′-biphenyl]-4-yl)-3-methyl-quinoline-4-carboxylic acid]
tumor growth (THP1 cells [7]; 5 mg/kg daily IP): arrested tumor growth | tumor growth (THP1 cells [7]; 15 mg/kg Q3D IP): slowed tumor growth | reduction in cellular uridine levels (THP1 cells [7]; THP1 cells isolated from treated mice vs vehicle): 90 % AUC | differentiation of explanted THP1 cells (CD11b expression) (THP1 cells [7]; tumors explanted after 10 days of treatment): marked differentiation | change in DHO levels, IP versus PO administration (DHODH activity; FIG. 11): similar | time until DHO levels undetectable again (DHODH activity; single 25 mg/kg dose): ≤ 72 h | time to rebound of plasma uridine (DHODH activity; single dose 25 mg/kg): about 48 hours | increase in ED50 (Lys-GFP-ER-HoxA9 cells [1]; cells cultured in 50% FBS): ~2 fold | myeloid differentiation effect in vitro (Lys-GFP-ER-HoxA9 cells [1]; pulses that lasted fewer than 48-hours): almost no effect | protein-bound (Plasma protein binding): 98-99% | prevention of organ rejection (organ rejection): effective in preventing organ rejection | protein O-GlcNAc modification [6]: global reduction of protein O-GlcNAc modification | survival [8, 14]: prolongation of survival | tolerability [8, 14]: well tolerated without hematologic toxicity or weight loss | differentiation markers on leukemic cells ([8]; 25 mg/kg Q2D for four doses): upregulation of differentiation markers CD11b (Mac-1) and Gr-1 (Ly6C/G) | leukemic involvement of bone marrow, spleen and peripheral blood ([8]; 25 mg/kg Q2D for four doses): dramatic decrease in the leukemic involvement of their bone marrow, spleen, and peripheral blood | side effects ([8]; 25 mg/kg Q2D for four doses): weight loss, anemia, and thrombocytopenia | time off treatment until relapse with leukemia ([8]; 25 mg/kg day 1+4, discontinued after 14 doses (day 59)): approximately 4 weeks | survival [8, 15]: even more dramatic prolongation of survival | toxicity [8, 15]: without toxicity | leukemic involvement of bone marrow, spleen and peripheral blood [8, 16]: even more dramatic decrease in the leukemic involvement of their bone marrow, spleen, and peripheral blood | side effects [8, 16]: none of the side effects | cellular uridine, UDP and UDP-glycoconjugates ([8]; HoxA9-Meis1 leukemia cells from bone marrow of treated mice): significant reduction in cellular uridine | tolerability and efficacy ([8]; administered every 3-days, mouse model of AML): both effective against AML and well-tolerated | half-life [9]: ~12 h | tolerated dose (wild-type C57B1/6 mice [10]): up to 15 mg/kg | kinase inhibitory activity ([11]; 100 nM): near-complete absence of kinase inhibitory activity | kinase inhibitory activity ([11]; 1 μM): near-complete absence of kinase inhibitory activity | morphology of leukemic cells isolated from treated mice ([12]; Wright-Giemsa cytospin): morphologic granulocytic differentiation | leukemia development in recipients of leukemic cells from treated donors ([12]; donors: 25 mg/kg every other day 4 doses, or day 1+4 of 7-day cycle 6 doses, both cases): took longer to develop symptoms of leukemia | toxicity (wild-type C57B1/6 mice [13]): weight loss and thrombocytopenia

Structure (SMILES): Nc1ccn([C@@H]2O[C@H](CO)[C@@H](O)[C@@H]2O)c(=O)n1 [cytarabine]
myeloid differentiation (Lys-GFP-ER-HoxA9 cells [1]): cytotoxicity without differentiation

Structure (SMILES): COc1cccc2c1C(=O)c1c(O)c3c(c(O)c1C2=O)C[C@@](O)(C(C)=O)C[C@@H]3O[C@H]1C[C@H](N)[C@H](O)[C@H](C)O1 [daunorubicin]
myeloid differentiation (Lys-GFP-ER-HoxA9 cells [1]): cytotoxicity without differentiation

Structure (SMILES): Cc1oncc1C(=O)Nc1ccc(C(F)(F)F)cc1 [leflunomide, 5-methyl-N-[4-(trifluoromethyl)phenyl]-isoxazole-4-carboxamide]
myeloid differentiation (Lys-GFP-ER-HoxA9 cells [1]): active | leukemic burden ([8]; 25 mg/kg daily): did not result in a reduction in leukemic burden | expression of the differentiation marker CD11b ([8]; 25 mg/kg daily (highest dosage)): very mild increase

Structure (SMILES): CN(Cc1cnc2nc(N)nc(N)c2n1)c1ccc(C(=O)N[C@@H](CCC(=O)O)C(=O)O)cc1 [methotrexate]
myeloid differentiation (Lys-GFP-ER-HoxA9 cells [1]): cytotoxicity without differentiation

Structure (SMILES): NC(=O)c1[nH]nc([C@@H]2O[C@H](CO)[C@@H](O)[C@H]2O)c1O [pyrazofurin]
myeloid differentiation (Lys-GFP-ER-HoxA9 cells [1]): phenocopied the differentiation effect of DHODH inhibition | effect of uridine supplementation of the media on differentiation (Lys-GFP-ER-HoxA9 cells [1]): abrogated the differentiation effect

DHODH enzyme inhibition [2]: active
Structure (SMILES): C/C(O)=C(\C#N)C(=O)Nc1ccc(C(F)(F)F)cc1 [teriflunomide, (2Z)-2-cyano-3-hydroxy-N-[4-(trifluoromethyl)phenyl]but-2-enamide]
myeloid differentiation (Lys-GFP-ER-HoxA9 cells [1]): active
